# In PMC11211441, “Distributable, metabolic PET reporting of tuberculosis” (Nature Communications, 2024):
# Values joined by “and” are separate entries in the source; they are usually repeats but may differ in a detail not shown here. Equal values may be shown once.
# Tests used:
# [1] = system: Mtb-infected marmoset lung lesions; assay: PET/CT imaging of tracer uptake in marmoset TB model; assay type: in vivo; conditions: for SUV/CMR / TGA/CMR: FDG, individual lesions
# Procedure: Rabbits and marmosets at NIAID were anaesthetized and maintained during imaging[49],[67]. Syringes of FDG or FDT were measured in a dose calibrator immediately before and after injection, targeting = injected doses of 2 mCi/kg. During uptake and distribution of the probes, a CT scan from the base of the skull spanning the lungs and the upper abdominal cavity was acquired as described for each species on a helical eight-slice Neurological Ceretom CT scanner (NeuroLogicia, Danvers, MA) operated as part of a hybrid pre-clinical PET/CT system utilizing a common bed. The animal bed was then retracted into the microPET gantry (MicroPET Focus 220, Siemens Preclinical Solutions, Knoxville, TN) and sixty minutesβ ± 5 min post FDG injection, a series of 2 or 3, 10 min emission scans with 75 mm thick windows with a 25 mm overlap were acquired caudal to cranial. […] For the blocking studies, injections of 150 µg of [^19F]FDT synthesized as described above were administered 60 min and 5 min prior to the [^18F]-FDT tracer and the scans were acquired as before. Two animals were used in the blocking studies with one animal receiving the blocking agent while the other was administered saline only prior to the FDT tracer. Two days later, the administrations were reversed so that the second animal received the blocking agent. The emission data for all scans were processed and corrected. Cynomolgus macaques (n = 3) at the University of Pittsburgh were imaged using a Siemens microPET Focus 220 PET scanner and a Neurological Ceretom CT scanner. Paired FDG and FDT scans were collected on only 2 macaques pre-necropsy. Scans were viewed using OsiriX (Pixmeo, Geneva, Switzerland) to identify and analyze individual granulomas as described previously.
# Dense lesion centers were subsequently identified for inclusion in the lung region manually and the program calculated the FDG signal parameters. In addition, each lesion within the lung was marked with a 3-D region of interest (ROI). In uninfected marmosets administered FDT, ROIs with a similar-volume (dia. 5 to 7 mm) were distributed in the lung as mock lesions according to the method of Ordonez et al.[70] and the SUV statistics for the ROIs were captured into excel sheets for analysis.
# [2] = 1.5 hr voiding window; cited from earlier work
# [3] = system: mammalian (porcine) trehalase; assay: Trehalase degradation assay; assay type: in vitro ADME; conditions: 0.3 units/mL trehalase, 10 mM substrate; for degradation by trehalase (Figure S5, released glucose): pH 5.7, 37 °C, 60 minutes
# Procedure: The metabolic stabilities of the remaining three analogs, [^18F]FDT, 4-epi-[^18F]FDT and 6-[^18F]FDT were tested. Although, human trehalose-degrading trehalase activity is low and restricted primarily to the brush-border of the kidney where it is thought to be GPI-anchored[28],[32], it can be elevated in some diseases, therefore we also tested degradation of the analogs in vitro using high concentrations of mammalian (porcine) trehalase (0.3 units/mL, 10 mM substrate, Fig. S5). […]
# Figure S5. Trehalase Assays.
# Substrates were prepared to a final concentration of 10 mM in 0.05 M citric acid, pH 5.7 including trehalase stock solution (0.3 units/mL). The reaction mixture was incubated at 37 °C for 60 minutes, and then quenched with an equal volume of 0.1 M Tris, pH 7.5. Released glucose was measured with glucose assay kit (see Methods).
# [4] = [19F]FDT clearance and in vivo stability in marmosets (plasma LC-MS, 19F NMR); set-up: species or system common marmosets; conditions: common marmoset, plasma, iv, 20 mg, marmosets M1-M3 (duplicate measurements), 20 mg IV
# Procedure: In order to determine [^19F]FDT metabolism in vivo, we assessed concentration vs time in two mammalian species: common marmosets and C57BL/6 mice. For marmosets weighing between 290.3–340.3 g, 20 mg of sterile-filtered FDT in PBS was injected IV (n = 3) and ~200 μL blood samples were taken from the femoral vein at 0 min, 5 min, 30 min, 60 min, 90 min and 180 min post injection. Samples were spun (4000 rcf for 10 mins at room temp) to separate red cell mass from plasma. Plasma portion was separated and stored at −80 °C for further analysis. Similarly, mice weighing from 18.7–20.5 g were injected (n = 5) with 5 mg of filter-sterilized FDT solution dissolved in PBS solution, pH 7.4. Mandibular blood samples were taken at 2 min, 15 min, 30 min and 45 min post injection. For the last sample in each mouse, the animal was bled out to get maximum sample for NMR analysis. Final urine samples were collected in 3 out of 5 mice through free catch. Blood samples were centrifuged (6500 rcf for 4 mins at room temp) to separate red cell mass from plasma, and plasma was separated and stored at −80 °C prior to analyzes.
# Plasma samples from −80 °C were thawed on ice and mixed with 80% acetonitrile to precipitate plasma proteins and other biomolecules. Samples were centrifuged at 10,000 g, 4 °C for 10 min.
# Figure S37. [19F]FDT Clearance and In Vivo Stability in Non-human Primates […]
# A, B) 20 mg [19F]FDT was injected into marmosets (A, n=3 biological replicates, each measured in duplicate) and 5 mg FDT injected into mice (B, n=5 biological replicates, each measured in triplicate). […]
# marmosets (A) and mice (B).
# [19F]FDG was detected, consistent with the only low levels of metabolism seen with [18F]FDT in rabbits (see Figure S3G). C-F) We further analyzed the potential degradation of FDT into FDG by 19F NMR spectroscopy in marmoset plasma (C) sample from 5 min time point, mouse plasma (D) sample from 30 min time point and mouse urine samples from 30 min (E) and 45 min (F) time points, respectively. In all these samples only [19F]FDT was observed (d -201.2). The data points are average values from three replicates with error bars ± SD.
# (1 picture or pasted object on this page, not shown here)
# [5] = Human microsomal stability assay; conditions: human, microsomes, pH 7.4, %Remaining, human liver microsomes
# Procedure: Microsomal stability assay was carried out as described previously. In brief, 10 x reduced nicotinamide adenine dinucleotide phosphate (NADPH)-regenerating system was freshly prepared by dissolving 37.2 mg glucose-6-phosphate (Sigma) in 1 mL of 100 mM potassium phosphate buffer, 39.8 mg nicotinamide adenine dinucleotide phosphate (NADP, Sigma) in 1 mL of potassium phosphate buffer, 11.5 U glucose-6-phosphate dehydrogenase (Thermo) in 1 mL of potassium phosphate buffer and 26.8 mg MgCl2.6H2O (Sigma) in 1 mL of distilled water. All these solutions were combined and kept on ice. […] After 5 min, 18 µL of NADPH-regenerating system was added to initiate reaction. Immediately after adding the NADPH regenerating system, 50 µL, 0 min time point sample was taken and quenched with equal volume of ice-cold methanol. Similarly further samples were taken at 10 min, 30 min, 60 min, 90 min and 120 min. Samples were centrifuged at 10,000 g at 4 °C for 10 min. […] After incubating the reaction mix at 37 °C for 5 min, 36 µL of NADPH regenerating system was added to initiate the reaction. 50 µL samples were taken at 0 min, 2.5 min, 5 min, 10 min, 20 min, 40 min and 80 min and reactions were quenched by adding equal amount of ice-cold acetonitrile and kept on ice.
# [6] = In vivo metabolism of 18F-labeled trehalose analogs in rabbits
# Procedure: Finally, putative degradation was also probed directly in vivo using both Mtb-infected and naïve rabbits.
# Blood (100 µL), urine (100–300 µL) and lesion samples were collected from animals and diluted 2:1 v/v with acetonitrile to sterilize them. These samples were then vortexed, centrifuged and the supernatant analyzed by either HPLC or TLC. The TLC silica gel plates used to assay these metabolism samples and lesion extracts were 150 Å Silica Gel HL 250 µm 10 ×20 cm channeled plates with a pre-adsorbent zone purchased from Analtech/iChromatography (Newark, DE). TLC plates were visualized via exposure to a phosphor screen for 16 h prior to imaging using a phosphor screen and Typhoon FLA7000 (GE Healthcare, Pittsburgh PA) or using a BioScan AR-2000 reader.
# [7] = substrate: O=C[C@H](O)[C@@H](O)[C@H](O)[C@H](O)COP(=O)(O)O; assay: OtsA^Sf enzyme kinetic assay (NADH-linked continuous); assay type: biochemical, E. coli; conditions: other: enzyme expressed from Spodoptera frugiperda, coupled-enzyme spectrophotometric assay, 25 °C, pH 7.5
# Procedure: OtsA kinetic parameters were also determined by monitoring the formation of T6P by NADH-linked continuous assay.
# 60 °C with a nitrogen flush.
# OtsA Enzyme kinetic assay
# spectrophotometric assay.
molecule,measurement,setting,value
2-[^18F]fluoro-2-deoxy-D-glucose [[^18F]FDG],SUV/CMR,[1]; 4 wks HRZE,12.2544 and 1.845 and 5.193 and 8.368 and 5.63 and 1.286 and 5.952 and 5.153 and 7.3616
same,TGA/CMR,[1]; 4 wks HRZE,11.4228 and 0.1147 and 1.936 and 8.84 and 2.799 and 0.1598 and 9.617 and 2.242 and 13.7241
same,SUV/CMR,[1]; Pre-Rx,5.878 and 2.269 and 2.719 and 4.3218 and 3.722 and 2.294 and 3.185 and 2.868 and 3.6021
same,TGA/CMR,[1]; Pre-Rx,7.811 and 0.2621 and 2.6706 and 8.989 and 4.301 and 0.5302 and 6.073 and 2.651 and 5.8274
same,uptake response to treatment (SUVs and TLG),"[1]; marmosets, 4 weeks HRZE","mixed, refractory and inconsistent uptake"
same,"dose, adrenals",[2],0.013 mSv/MBq
same,"dose, kidneys",[2],0.020 mSv/MBq
same,"dose, urinary bladder wall",[2],0.086 mSv/MBq
OC[C@H]1O[C@H](O[C@H]2O[C@H](CO)[C@@H](F)[C@H](O)[C@H]2O)[C@H](O)[C@@H](O)[C@@H]1O [4-epi-[^19F]FDT],degradation by trehalase,[3],little or no degradation
same,"degradation by trehalase (Figure S5, released glucose)",[3],0
OC[C@H]1O[C@H](O[C@H]2O[C@H](CF)[C@@H](O)[C@H](O)[C@H]2O)[C@H](O)[C@@H](O)[C@@H]1O [6-[^19F]FDT],degradation by trehalase,[3],14%
same,"degradation by trehalase (Figure S5, released glucose)",[3],14
"OC[C@H]1O[C@H](O[C@H]2O[C@H](CO)[C@@H](O)[C@H](O)[C@H]2O)[C@H](O)[C@@H](O)[C@@H]1O [trehalose, reference compound]",degradation by trehalase,[3],complete degradation
same,"degradation by trehalase (Figure S5, released glucose)",[3],100
OC[C@H]1O[C@H](O[C@H]2O[C@H](CO)[C@@H](O)[C@H](O)[C@H]2F)[C@H](O)[C@@H](O)[C@@H]1O [FDT],concentration at 5 min,[4]; 5 min post injection,551 µM
same,concentration at 30 min,[4]; 30 min post injection,250 µM
same,concentration at 61 min,[4]; 61 min post injection,173 µM
same,concentration at 93 min,[4]; 93 min post injection,97.1 µM
same,"remaining at 0 h, 3 µM",[5]; 0 min,100%
same,"remaining at 5 min, 3 µM",[5]; 5 min,74.5%
same,"remaining at 10 min, 3 µM",[5]; 10 min,58.5%
same,"remaining at 20 min, 3 µM",[5]; 20 min,55.3%
same,"remaining at 40 min, 3 µM",[5]; 40 min,56.6%
same,"remaining at 2.5 min, 3 µM",[5]; […],80.1%
OC[C@H]1O[C@H](O[C@H]2O[C@H](CO)[C@H]([18F])[C@H](O)[C@H]2O)[C@H](O)[C@@H](O)[C@@H]1O [4-epi-[^18F]FDT],epi-4-Ftre (%),"[6]; Control Rabbits, 0 min",100%
same,epi-4-Ftre (%),"[6]; Control Rabbits, 15 min",87%
same,epi-4-Ftre (%),"[6]; Control Rabbits, 30 min",78%
same,epi-4-Ftre (%),"[6]; Control Rabbits, 45 min",87%
same,epi-4-Ftre (%),"[6]; Control Rabbits, 60 min",73%
same,epi-4-Ftre (%),"[6]; Control Rabbits, 90 min",82%
same,epi-4-Ftre (%),"[6]; Control Rabbits, 120 min",76%
same,epi-4-Ftre (%),"[6]; Control Rabbits, 180 min",71%
same,epi-4-Ftre (%),"[6]; Infected Rabbits, 0 min",100%
same,epi-4-Ftre (%),"[6]; Infected Rabbits, 15 min",89%
same,epi-4-Ftre (%),"[6]; Infected Rabbits, 30 min",87%
same,epi-4-Ftre (%),"[6]; Infected Rabbits, 45 min",84%
same,epi-4-Ftre (%),"[6]; Infected Rabbits, 60 min",81%
same,epi-4-Ftre (%),"[6]; Infected Rabbits, 90 min",76%
same,epi-4-Ftre (%),"[6]; Infected Rabbits, 120 min",91%
same,epi-4-Ftre (%),"[6]; Infected Rabbits, 180 min",90%
same,metabolism,"[6]; rabbits, after 3 h",30%
"OtsA^Sf (Escherichia coli K-12) (protein, His tag (type from Ni-NTA purification and anti-His blot) (C); made in house; host or cells: Spodoptera frugiperda Sf9 cells (Bac-to-Bac baculovirus)) MSRLVVVSNRIAPPDEHAASAGGLAVGILGALKAAGGLWFGWSGETGNEDQPLKKVKKGNITWASFNLSEQDLDEYYNQFSNAVLWPAFHYRLDLVQFQRPAWDGYLRVNALLADKLLPLLQDDDIIWIHDYHLLPFAHELRKRGVNNRIGFFLHIPFPTPEIFNALPTYDTLLEQLCDYDLLGFQTENDRLAFLDCLSNLTRVTTRSAKSHTAWGKAFRTEVYPIGIEPKEIAKQAAGPLPPKLAQLKAELKNVQNIFSVERLDYSKGLPERFLAYEALLEKYPQHHGKIRYTQIAPTSRGDVQAYQDIRHQLENEAGRINGKYGQLGWTPLYYLNQHFDRKLLMKIFRYSDVGLVTPLRDGMNLVAKEYVAAQDPANPGVLVLSQFAGAANELTSALIVNPYDRDEVAAALDRALTMSLAERISRHAEMLDVIVKNDINHWQECFISDLKQIVPRSAESQQRDKVATFPKLA",Km,[7],4.9 ± 0.5 mM
same,kcat,[7],57.5 ± 2.3 s⁻¹
same,kcat/Km,[7],11900 M⁻¹ s⁻¹
